In patent publication US8822503B2, “2-pyridone compounds” (Taisho Pharmaceutical Co., Ltd, priority 2009, dated 2014):

target: T1, human liver GK (Homo sapiens, UniProt P35557); assay: GK activation test; type: biochemical; settings: test compound concentration needed to activate 50% of maximum activation ability; 4 mM 14C-labeled glucose, 2 mM ATP, room temperature, 20 minutes
T1 construct: GST (glutathione S-transferase) (N); made in house; host or cells: E. coli
T1 sequence (P35557 1-466 isoform P35557-2): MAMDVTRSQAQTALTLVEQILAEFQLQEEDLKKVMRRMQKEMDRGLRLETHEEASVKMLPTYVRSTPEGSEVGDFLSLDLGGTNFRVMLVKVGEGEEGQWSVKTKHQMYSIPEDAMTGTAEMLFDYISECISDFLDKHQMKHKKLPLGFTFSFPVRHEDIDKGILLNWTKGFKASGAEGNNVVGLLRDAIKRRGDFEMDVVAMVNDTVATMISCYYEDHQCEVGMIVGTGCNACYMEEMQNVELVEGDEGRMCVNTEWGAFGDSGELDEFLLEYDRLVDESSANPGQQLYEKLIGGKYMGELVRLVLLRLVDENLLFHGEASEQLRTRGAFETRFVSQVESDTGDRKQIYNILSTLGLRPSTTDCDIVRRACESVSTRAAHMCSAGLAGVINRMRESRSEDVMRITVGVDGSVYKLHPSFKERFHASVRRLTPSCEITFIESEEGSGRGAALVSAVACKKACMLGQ
Summary of the method: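 GST-tagged human liver GK from E. coli (0.24 μg/well) with 4 mM 14C-glucose, 2 mM ATP in Hepes-KOH pH 7.1, KCl, MgCl2, DTT, 1% DMSO, 20 min room temperature. Labeled glucose 6-phosphate captured on anion resin, eluted and counted. EC50 = concentration giving half of maximal activation.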

Row | SMILES | EC50
1 | CC(C)c1ccc(/C(=C/[C@H]2CCC(=O)C2)c2ccc(S(C)(=O)=O)cc2)[nH]c1=O [Example 1-107, 6-{(E)-1-[4-(Methylsulfonyl)phenyl]-2-[(1S)-3-oxocyclopentyl]ethenyl}-3-(propan-2-yl)pyridin-2(1H)-one] | 0.01 to 0.5 µM
2 | CS(=O)(=O)c1ccc(/C(=C\[C@H]2CCC(=O)C2)c2ccc(C3CC3)c(=O)[nH]2)cc1 [Example 1-108, 3-Cyclopropyl-6-{(E)-1-[4-(methylsulfonyl)phenyl]-2-[(1S)-3-oxocyclopentyl]ethenyl}pyridin-2(1H)-one] | 0.01 to 0.5 µM
3 | CC(C)c1ccc(/C(=C\C2CCOCC2)c2ccc(Cl)c(=O)[nH]2)cc1 [Example 1-109, 3-Chloro-6-[(E)-1-[4-(propan-2-yl)phenyl]-2-(tetrahydro-2H-pyran-4-yl)ethenyl]pyridin-2(1H)-one] | 0.5 to 3 µM
4 | O=c1[nH]c(/C(=C/C2CCOCC2)c2ccc(S(=O)(=O)C3CC3)cc2)ccc1Cl [Example 1-110, 3-Chloro-6-[(E)-1-[4-(cyclopropylsulfonyl)phenyl]-2-(tetrahydro-2H-pyran-4-yl)ethenyl]pyridin-2(1H)-one] | 0.5 to 3 µM
5 | O=c1[nH]c(/C(=C/C2CCOCC2)c2ccc(N3CCOCC3)cc2)ccc1Cl [Example 1-111, 3-Chloro-6-[(E)-1-[4-(morpholin-4-yl)phenyl]-2-(tetrahydro-2H-pyran-4-yl)ethenyl]pyridin-2(1H)-one] | 3 to 10 µM
6 | CC(=O)c1ccc(/C(=C\C2CCOCC2)c2ccc(Cl)c(=O)[nH]2)cc1 [Example 1-112, 6-[(E)-1-(4-Acetylphenyl)-2-(tetrahydro-2H-pyran-4-yl)ethenyl]-3-chloropyridin-2(1H)-one] | 3 to 10 µM
7 | CS(=O)(=O)c1ccc(C/C(=C\C2CCOCC2)c2ccc(Cl)c(=O)[nH]2)cc1 [Example 1-113, 3-Chloro-6-[(1E)-3-[4-(methylsulfonyl)phenyl]-1-(tetrahydro-2H-pyran-4-yl)prop-1-en-2-yl]pyridin-2(1H)-one] | 3 to 10 µM
8 | CSc1ccc(C(CC2CCCC2)c2ccc(C)c(=O)[nH]2)cc1 (centres unmarked) [Example 2-1, 6-{2-Cyclopentyl-1-[4-(methylsulfanyl)phenyl]ethyl}-3-methylpyridin-2(1H)-one] | 0.5 to 3 µM
9 | Cc1ccc(C(CC2CCCC2)c2ccc(S(C)(=O)=O)cc2)[nH]c1=O (centres unmarked) [Example 2-2, 6-{2-Cyclopentyl-1-[4-(methylsulfonyl)phenyl]ethyl}-3-methylpyridin-2(1H)-one] | 0.5 to 3 µM
10 | Cc1ccc(C(CC2CCCC2)c2ccc(S(=O)(=O)C3CC3)cc2)[nH]c1=O (centres unmarked) [Example 2-3, 6-{2-Cyclopentyl-1-[4-(cyclopropylsulfonyl)phenyl]ethyl}-3-methylpyridin-2(1H)-one] | 0.01 to 0.5 µM
11 | CSc1ccc(C(CC2CCCC2)c2ccc(C)c(=O)[nH]2)cc1Cl (centres unmarked) [Example 2-4, 6-{1-[3-Chloro-4-(methylsulfanyl)phenyl]-2-cyclopentylethyl}-3-methylpyridin-2(1H)-one] | 0.5 to 3 µM
12 | Cc1ccc(C(CC2CCCC2)c2ccc(S(C)(=O)=O)c(Cl)c2)[nH]c1=O (centres unmarked) [Example 2-5, 6-{1-[3-Chloro-4-(methylsulfonyl)phenyl]-2-cyclopentylethyl}-3-methylpyridin-2(1H)-one] | 0.5 to 3 µM
13 | CCc1ccc(C(CC2CCCC2)c2ccc(SC)cc2)[nH]c1=O (centres unmarked) [Example 2-6, 6-{2-Cyclopentyl-1-[4-(methylsulfanyl)phenyl]ethyl}-3-ethylpyridin-2(1H)-one] | 0.5 to 3 µM
14 | CCc1ccc(C(CC2CCCC2)c2ccc(S(C)(=O)=O)cc2)[nH]c1=O (centres unmarked) [Example 2-7, 6-{2-Cyclopentyl-1-[4-(methylsulfonyl)phenyl]ethyl}-3-ethylpyridin-2(1H)-one] | 0.5 to 3 µM
15 | CCCc1ccc(C(CC2CCCC2)c2ccc(SC)cc2)[nH]c1=O (centres unmarked) [Example 2-8, 6-{2-Cyclopentyl-1-[4-(methylsulfanyl)phenyl]ethyl}-3-propylpyridin-2(1H)-one] | 0.5 to 3 µM
16 | CCCc1ccc(C(CC2CCCC2)c2ccc(S(C)(=O)=O)cc2)[nH]c1=O (centres unmarked) [Example 2-9, 6-{2-Cyclopentyl-1-[4-(methylsulfonyl)phenyl]ethyl}-3-propylpyridin-2(1H)-one] | 0.5 to 3 µM
17 | CS(=O)(=O)c1ccc(C(CC2CCCC2)c2ccc(C3CC3)c(=O)[nH]2)cc1 (centres unmarked) [Example 2-10, 6-{2-Cyclopentyl-1-[4-(methylsulfonyl)phenyl]ethyl}-3-cyclopropylpyridin-2(1H)-one] | 0.5 to 3 µM
18 | CCc1ccc(C(CC2CCCC2)c2ccc(S(=O)(=O)CCCO)cc2)[nH]c1=O (centres unmarked) [Example 2-11, 6-(2-Cyclopentyl-1-{4-[(3-hydroxypropyl)sulfonyl]phenyl}ethyl)-3-ethylpyridin-2(1H)-one] | 0.5 to 3 µM

Row | SMILES | EC50
19 | CC(C)c1ccc(C(CC2CCCC2)c2ccc(S(C)(=O)=O)cc2)[nH]c1=O (centres unmarked) [Example 2-12, 6-{2-Cyclopentyl-1-[4-(methylsulfonyl)phenyl]ethyl}-3-(propan-2-yl)pyridin-2(1H)-one] | 0.5 to 3 µM
20 | CCN(CC)CCCS(=O)(=O)c1ccc(C(CC2CCCC2)c2ccc(C)c(=O)[nH]2)cc1Cl (centres unmarked) [Example 2-13, 6-[1-(3-Chloro-4-{[3-(diethylamino)propyl]sulfonyl}phenyl)-2-cyclopentylethyl]-3-methylpyridin-2(1H)-one] | 0.5 to 3 µM
21 | Cc1ccc(C(CC2CCCC2)c2ccc(S(=O)(=O)CCCO)c(Cl)c2)[nH]c1=O (centres unmarked) [Example 2-14, 6-(1-{3-Chloro-4-[(3-hydroxypropyl)sulfonyl]phenyl}-2-cyclopentylethyl)-3-methylpyridin-2(1H)-one] | 0.5 to 3 µM
22 | Cc1ccc(C(CCC2CCCC2)c2ccc(S(=O)(=O)C3CC3)cc2)[nH]c1=O (centres unmarked) [Example 2-15, 6-{3-Cyclopentyl-1-[4-(cyclopropylsulfonyl)phenyl]propyl}-3-methylpyridin-2(1H)-one] | 0.01 to 0.5 µM
23 | CSc1ccc(C(CC2CCCCC2)c2ccc(C)c(=O)[nH]2)cc1 (centres unmarked) [Example 2-16, 6-{2-Cyclohexyl-1-[4-(methylsulfanyl)phenyl]ethyl}-3-methylpyridin-2(1H)-one] | 0.5 to 3 µM
24 | Cc1ccc(C(CC2CCCCC2)c2ccc(S(C)(=O)=O)cc2)[nH]c1=O (centres unmarked) [Example 2-17, 6-{2-Cyclohexyl-1-[4-(methylsulfonyl)phenyl]ethyl}-3-methylpyridin-2(1H)-one] | 0.5 to 3 µM
25 | CSc1ccc(C(CC2CCOCC2)c2ccc(C)c(=O)[nH]2)cc1 (centres unmarked) [Example 2-18, 3-Methyl-6-{1-[4-(methylsulfanyl)phenyl]-2-(tetrahydro-2H-pyran-4-yl)ethyl}pyridin-2(1H)-one] | 3 to 10 µM
26 | Cc1ccc(C(CC2CCOCC2)c2ccc(S(C)(=O)=O)cc2)[nH]c1=O (centres unmarked) [Example 2-19, 3-Methyl-6-{1-[4-(methylsulfonyl)phenyl]-2-(tetrahydro-2H-pyran-4-yl)ethyl}pyridin-2(1H)-one] | 3 to 10 µM
27 | CSc1ccc(C(CC2CCC(=O)CC2)c2ccc(C)c(=O)[nH]2)cc1 (centres unmarked) [Example 2-20, 3-Methyl-6-{1-[4-(methylsulfanyl)phenyl]-2-(4-oxocyclohexyl)ethyl}pyridin-2(1H)-one] | 0.5 to 3 µM
28 | Cc1ccc(C(CC2CCC(=O)CC2)c2ccc(S(C)(=O)=O)cc2)[nH]c1=O (centres unmarked) [Example 2-21, 3-Methyl-6-{1-[4-(methylsulfonyl)phenyl]-2-(4-oxocyclohexyl)ethyl}pyridin-2(1H)-one] | 3 to 10 µM
29 | CSc1ccc(C(C[C@H]2CCC(=O)C2)c2ccc(C)c(=O)[nH]2)cc1 (stereo partly drawn) [Example 2-22, 3-Methyl-6-{1-[4-(methylsulfanyl)phenyl]-2-[(1R)-3-oxocyclopentyl]ethyl}pyridin-2(1H)-one] | 0.5 to 3 µM
30 | Cc1ccc(C(C[C@H]2CCC(=O)C2)c2ccc(S(C)(=O)=O)cc2)[nH]c1=O (stereo partly drawn) [Example 2-23, 3-Methyl-6-{1-[4-(methylsulfonyl)phenyl]-2-[(1R)-3-oxocyclopentyl]ethyl}pyridin-2(1H)-one] | 3 to 10 µM
31 | CN1CCN(S(=O)(=O)c2ccc(C(CC3CCCC3)c3ccc(Cl)c(=O)[nH]3)cc2)CC1 (centres unmarked) [Example 2-24, 3-Chloro-6-(2-cyclopentyl-1-{4-[(4-methylpiperazin-1-yl)sulfonyl]phenyl}ethyl)pyridin-2(1H)-one] | 3 to 10 µM
32 | O=c1[nH]c(C(CC2CCCC2)c2ccc(S(=O)(=O)C3CC3)cc2)ccc1Cl (centres unmarked) [Example 2-25, 3-Chloro-6-{2-cyclopentyl-1-[4-(cyclopropylsulfonyl)phenyl]ethyl}pyridin-2(1H)-one] | 0.5 to 3 µM
33 | CSc1ccc(/C(=C\[C@H]2CCC(=O)N2)c2ccc(C3CC3)c(=O)[nH]2)cc1 [Example 4-1, 3-Cyclopropyl-6-{(E)-1-[4-(methylsulfanyl)phenyl]-2-[(2R)-5-oxopyrrolidin-2-yl]ethenyl}pyridin-2(1H)-one] | 0.01 to 0.5 µM
34 | CCOc1ccc(/C(=C\[C@H]2CCC(=O)N2)c2ccc(Cl)c(=O)[nH]2)cc1Cl [Example 4-2, 3-Chloro-6-{(E)-1-(3-chloro-4-ethoxyphenyl)-2-[(2R)-5-oxopyrrolidin-2-yl]ethenyl}pyridin-2(1H)-one] | 0.5 to 3 µM
35 | CCOc1ccc(C(C[C@H]2CCC(=O)N2)c2ccc(Cl)c(=O)[nH]2)cc1Cl (stereo partly drawn) [Example 4-3, 3-Chloro-6-{1-(3-chloro-4-ethoxyphenyl)-2-[(2R)-5-oxopyrrolidin-2-yl]ethyl}pyridin-2(1H)-one] | 0.5 to 3 µM
